Assay results as given in PubChem BioAssay (NCI).
Values joined by “and” are separate entries in the source; they are usually repeats but may differ in a detail not shown here. Identical values can stand only once.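 Compound exposure: 48 hours, 5 concentrations, 96-well plates. Abbreviation: GI50, concentration required for 50% inhibition of growth. TGI: concentration producing complete growth inhibition.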

What was measured:
Assay in all cases: DTP human tumour cell line panel, 48 h
MDA-MB-435 = system: MDA-MB-435
BT-549 breast = system: BT-549 breast
MDA-MB-231 breast = system: MDA-MB-231 breast
PC-3 prostate = system: PC-3 prostate
MDA-N = system: MDA-N
M19-MEL melanoma = system: M19-MEL melanoma
DMS 273 small cell lung = system: DMS 273 small cell lung

Compound	GI50 (MDA-MB-435)	TGI (MDA-MB-435)	GI50 (BT-549 breast)	TGI (BT-549 breast)	GI50 (MDA-MB-231 breast)	TGI (MDA-MB-231 breast)	GI50 (PC-3 prostate)	TGI (PC-3 prostate)	TGI (MDA-N)	GI50 (MDA-N)	TGI (M19-MEL melanoma)	TGI (DMS 273 small cell lung)
CCc1n(Cc2ccc3ccccc3n2)cc[n+]1Cc1ccc2ccccc2n1	0.141 µM	10.3 µM	0.278 µM	11.2 µM	0.441 µM	4.16 µM	0.163 µM	10.7 µM				
COc1ccc2c(c1)/C(=C\c1cccnc1)C(=O)N2	35.9 µM	> 100 µM	13.3 µM	32.3 µM	16.3 µM	35.5 µM	33.1 µM	> 100 µM				
CN1CCN(c2ccc(NC(=O)c3nc4ccc5[nH]ncc5c4c4c3CCCC4)cc2C(F)(F)F)CC1	0.899 µM	1.74 µM	6.07 µM	12.4 µM	0.941 µM	1.72 µM						
O=C1C=C(NCCNC(=S)Nc2ccccc2)c2nccc3c2c1nc1ccccc13	15.6 µM	47.7 µM	70.1 µM	> 100 µM	94.5 µM	> 100 µM	> 100 µM	> 100 µM				
C=C1SC(=Nc2c(C)cc(C)cc2C)N(C(=O)c2sc3ccccc3c2Cl)C12CCCCC2	> 100 µM	> 100 µM	> 100 µM	> 100 µM	> 100 µM	> 100 µM	22.3 µM	> 100 µM				
CC1(C)CC[C@H](Nc2ncc(C(F)(F)F)c(-c3c[nH]c4c(P(C)(C)=O)c(C#N)ccc34)n2)CN1	0.038 µM	12 µM	0.0758 µM	3.67 µM	0.4 µM	9.08 µM	0.0396 µM	43.3 µM				
CC(C)CNCC(O)COc1ccc(C(C)(C)c2ccc(OCC(O)CNCC(C)C)cc2)cc1 (stereo unspecified)	1.73 µM	3.29 µM	7.82 µM	21 µM	1.5 µM	3.25 µM	2.3 µM	7.02 µM				
O=[N+]([O-])c1ccc(S(=O)Cc2ccccc2)c([N+](=O)[O-])c1 (stereo unspecified)	2.51 µM	7.69 µM	2.09 µM	7.37 µM	2.82 µM	8.92 µM	14.6 µM	30.9 µM				
COc1ccc(-c2oc3c(OC)c(OC)c(OC)c(O)c3c(=O)c2OC)cc1OC		32.9 µM		> 100 µM		> 100 µM		> 93 µM	30 µM			
CCN(CC)CCNc1ccc([N+](=O)[O-])c2sc3ccccc3c(=O)c12	0.901 µM	2.32 µM	1.74 µM	7.8 µM	2.29 µM	9.15 µM	1.05 µM	2.47 µM				
FC(F)(F)c1cc(-c2nnc3n2N=C(N2CCCC2)CS3)cc(C(F)(F)F)c1	> 50 µM	> 50 µM	> 50 µM	> 50 µM	32.2 µM	> 50 µM	> 50 µM	> 50 µM				
CSC(CC(=O)O)C(=O)O (stereo unspecified)		> 100 µM		> 100 µM		> 100 µM		> 100 µM	> 100 µM			
COc1ccc2c(c1)C(=O)c1c-2n(CCCN=[N+]=[N-])c(=O)c2cc(N(C)C)ccc12	> 100 µM	> 100 µM	6.15 µM	> 100 µM	> 100 µM	> 100 µM	> 100 µM	> 100 µM				
COc1ccc(-c2cc(=O)c3c(C)cc(C)nc3[nH]2)cc1	29.1 µM	> 100 µM		86.7 µM		67.5 µM	23.9 µM	> 100 µM	> 100 µM	33.2 µM		
C=CCN(/C=C1/C(=O)O[C@H](COC)[C@@]2(C)C1=C(O)C(=O)C1=C2[C@H](OC(C)=O)C[C@]2(C)C(=O)CC[C@@H]12)CC=C	2.68 µM	> 10 µM	0.141 µM	4.12 µM	6.23 µM	> 10 µM	0.177 µM	> 10 µM				
Cc1c(S(C)(=O)=O)c(-c2cc(F)cc(N3CCN(c4ccc(NS(=O)(=O)c5ccc(N[C@H](CCN6CCC(C(=O)OCCCP(=O)(O)O)CC6)CSc6ccccc6)c(S(=O)(=O)C(F)(F)F)c5)cc4)CC3)c2)c(-c2ccc(Cl)cc2)n1C(C)C	> 100 µM	> 100 µM	> 100 µM	> 100 µM	3.13 µM	28 µM	> 100 µM	> 100 µM				
O=C(c1ccc2ccccc2c1)c1c(C(F)(F)F)n([O-])c2cc(F)c(F)cc2[n+]1=O	1.96 µM	4.12 µM	1.89 µM	4.17 µM	1.86 µM	3.99 µM	1.48 µM	2.9 µM				
COc1cc(/C=C2\CCC/C(=C\c3cc(OC)c(O)c(OC)c3)C2=O)cc(OC)c1O	2.57 µM	75 µM and > 100 µM		5.92 µM		10.8 µM	1.24 µM		75 µM and > 100 µM	2.52 µM		
CCOC(=O)C1=C(c2ccccc2)N(C)c2ccccc2S1		> 100 µM		66.6 µM		58.9 µM		> 100 µM				

Compound	GI50 (MDA-MB-435)	TGI (MDA-MB-435)	GI50 (BT-549 breast)	TGI (BT-549 breast)	GI50 (MDA-MB-231 breast)	TGI (MDA-MB-231 breast)	GI50 (PC-3 prostate)	TGI (PC-3 prostate)	TGI (MDA-N)	GI50 (MDA-N)	TGI (M19-MEL melanoma)	TGI (DMS 273 small cell lung)
Cc1ccc(/C(=N\N=C(N)N)c2ccccc2)cc1	0.203 µM	0.631 µM	0.744 µM	7.62 µM	0.394 µM	3.93 µM	0.406 µM	18.7 µM				
C[C@H](NC(=O)[C@@H]1CSSC[C@@H](NC(=O)c2nc3ccccc3cc2O)C(=O)NCC(=O)N1C)c1ccccc1	0.737 µM	6.59 µM	6.88 µM	16.1 µM	1.94 µM	7.84 µM	5.98 µM	13.5 µM				
CCn1c(C(=O)N(C2CC2)C2CC2)cc2c3c(ncn3C)c(Nc3cc(C)n(C)n3)nc21	> 100 µM	> 100 µM	> 100 µM	> 100 µM	35.5 µM	> 100 µM	> 100 µM	> 100 µM				
COc1ccc(NC(=O)C(=O)Cc2nc3ccc([N+](=O)[O-])cc3[nH]c2=O)c(OC)c1											> 100 µM	> 100 µM
OC1c2ccccc2C2(O)C1C(c1ccccc1)C(c1ccccc1)C2(O)c1ccccc1 (stereo unspecified)											38 µM	23.5 µM
CCCC(=O)Nc1cc(C(=O)N2C[C@@H]3C[C@]34C2=CC(=O)c2[nH]cc(C)c24)n(COC)c1	3.19 µM	19.2 µM and 12.5 µM	3 µM	29.5 µM and 11.3 µM	2.94 µM	29.5 µM and 8.01 µM	2.86 µM	37.5 µM and 13.2 µM	19.6 µM and 13.3 µM	3.66 µM		
COc1ccc(N2Cc3cnc(Nc4ccccc4)nc3N([C@@H]3CC[C@@H](O)C3)C2=O)cc1	5.98 µM	> 25 µM	5.27 µM	> 25 µM	5.18 µM	> 22.3 µM	6.93 µM	> 25 µM				
CCCc1c(CC)c(=N)c2ccccc2n1C	> 100 µM	> 100 µM	44.2 µM	> 100 µM	> 100 µM	> 100 µM	71.5 µM	> 100 µM				
CCCCS(=O)CCC(N)C(=O)O (stereo unspecified)				> 100 µM		> 100 µM		> 100 µM	> 100 µM			
O=Nc1c(-c2c(O)[nH]c3ccc([N+](=O)[O-])cc23)[nH]c2ccc(O)cc12	0.406 µM	> 57.8 µM	0.463 µM	> 100 µM	0.5 µM	> 52.7 µM	0.394 µM	> 100 µM				
CCCCCCCCCCCCCCN		> 100 µM		> 100 µM		> 100 µM		> 100 µM	> 100 µM			
CCOC(=O)C1=C(C(=O)c2ccc(C)cc2)C(c2cccc([N+](=O)[O-])c2)C(C(=O)c2ccc(C)cc2)=C(C(=O)OCC)N1		33.2 µM		> 100 µM		29 µM		59.9 µM				
Cc1ccc(S(=O)(=O)NCCNC2=CC(=O)c3nc4ccccc4c4ccnc2c34)cc1	17.7 µM	41.2 µM	19.2 µM	46.1 µM	24 µM	66.1 µM	16 µM	49.8 µM				
COc1ccc(-c2nc3sc(-c4ccc(Cl)cc4)cn3n2)cc1	> 50 µM	> 50 µM	43.2 µM	> 50 µM	2.06 µM	16.7 µM	> 50 µM	> 50 µM				
O=C(O)[C@@H]1[C@H](C(=O)O)[C@H](C(=O)O)C[C@@H]1C(=O)O		> 100 µM		> 100 µM		> 100 µM		> 100 µM	> 100 µM			
CCCCCCCNc1nc(C(=O)OCC)ncc1-c1ccc(C(F)(F)F)cc1	32.1 µM	> 100 µM	29.1 µM	97.7 µM	33.3 µM	> 100 µM	26.6 µM	> 100 µM				
O=C1C(c2c[nH]c3ccccc23)=C(c2c[nH]c3ccccc23)C(=O)N1O	> 25 µM	> 25 µM	> 25 µM	> 25 µM	> 19.4 µM	> 25 µM	> 25 µM	> 25 µM				
CCCn1c(SC)nc(COC(=O)NC)c1COC(=O)NC		> 100 µM		> 100 µM		> 100 µM		> 100 µM	> 100 µM			
COc1cc2c(c(OC)c1OC)-c1ccc(N)c(=O)cc1[C@@H](NC(C)=O)CC2	< 0.01 µM		0.0164 µM	0.0744 µM			0.0354 µM	> 100 µM				
